Assay results from ChEMBL document CHEMBL4396910, “Endomorphin-2 analogs containing modified tyrosines: Biological and theoretical investigation of the influence on conformation and pharmacological profile” (Eur J Med Chem, 2019).

Assays:
Mu-type opioid receptor [1] = molecular target: T1, Mu-type opioid receptor (Homo sapiens, UniProt P35372); assay: Agonist activity at human recombinant MOR expressed in CHO cells co-expressing C-terminally modified Galphaqi5 assessed as induction of calcium mobilization by Fluo-4AM dye-based fluorescence assay relative to endomorphin-2; type: functional, cell-based
T1 sequence (P35372 whole entry): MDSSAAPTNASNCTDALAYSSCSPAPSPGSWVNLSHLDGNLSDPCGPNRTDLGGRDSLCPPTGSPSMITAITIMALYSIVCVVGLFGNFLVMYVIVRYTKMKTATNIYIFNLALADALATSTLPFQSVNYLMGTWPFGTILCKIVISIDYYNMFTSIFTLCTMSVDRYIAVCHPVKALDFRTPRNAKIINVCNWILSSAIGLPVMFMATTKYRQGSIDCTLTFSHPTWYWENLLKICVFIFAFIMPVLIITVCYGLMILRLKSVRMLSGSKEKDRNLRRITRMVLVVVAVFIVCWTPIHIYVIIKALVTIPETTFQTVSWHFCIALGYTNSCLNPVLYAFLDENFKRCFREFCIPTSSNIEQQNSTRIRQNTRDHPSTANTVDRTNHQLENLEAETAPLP

[2] = Retention time of the compound by RP-HPLC analysis; type: physicochemical
Mu-type opioid receptor [3] = molecular target: T1, Mu-type opioid receptor; assay: Agonist activity at human recombinant MOR expressed in CHO cells co-expressing C-terminally modified Galphaqi5 assessed as induction of calcium mobilization by Fluo-4AM dye-based fluorescence assay; type: functional, cell-based
[4] = molecular target: Delta-type opioid receptor (Homo sapiens, UniProt P41143); assay: Displacement of [3H]deltrophin-2 from human recombinant DOR expressed in CHO cell membranes incubated for 2 hrs by liquid scintillation counting method
Sequence of Delta-type opioid receptor (P41143 whole entry): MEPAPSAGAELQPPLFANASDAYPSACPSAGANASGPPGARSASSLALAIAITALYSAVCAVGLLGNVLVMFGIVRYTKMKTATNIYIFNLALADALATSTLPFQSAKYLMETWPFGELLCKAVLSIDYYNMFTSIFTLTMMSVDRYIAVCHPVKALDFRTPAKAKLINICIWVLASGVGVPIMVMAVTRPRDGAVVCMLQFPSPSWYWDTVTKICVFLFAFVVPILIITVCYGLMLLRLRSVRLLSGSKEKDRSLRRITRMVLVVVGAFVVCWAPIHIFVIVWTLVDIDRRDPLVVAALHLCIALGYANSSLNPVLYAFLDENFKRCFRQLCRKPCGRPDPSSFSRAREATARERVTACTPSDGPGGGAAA

[5] = molecular target: Kappa-type opioid receptor (Homo sapiens, UniProt P41145); assay: Displacement of [3H]U-69593 from human recombinant KOR expressed in CHO cell membranes incubated for 2 hrs by liquid scintillation counting method
Sequence of Kappa-type opioid receptor (P41145 whole entry): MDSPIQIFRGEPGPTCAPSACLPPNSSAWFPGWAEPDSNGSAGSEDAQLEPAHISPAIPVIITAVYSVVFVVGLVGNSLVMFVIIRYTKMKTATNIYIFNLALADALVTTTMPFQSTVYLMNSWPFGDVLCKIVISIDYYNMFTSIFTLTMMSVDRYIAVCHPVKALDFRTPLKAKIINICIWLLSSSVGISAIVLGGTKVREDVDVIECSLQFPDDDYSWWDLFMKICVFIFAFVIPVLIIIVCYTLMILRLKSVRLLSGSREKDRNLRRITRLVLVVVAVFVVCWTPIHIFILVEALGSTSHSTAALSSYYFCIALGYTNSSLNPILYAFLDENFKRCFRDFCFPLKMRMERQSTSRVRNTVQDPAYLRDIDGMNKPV

[6] = n-Octanol/water partition coefficient, log P of compound at 50 ug at pH 7.4 measured after 2 mins by RP-HPLC analysis; type: physicochemical; conditions: pH 7.4, 2 min
Mu-type opioid receptor [7] = molecular target: T1, Mu-type opioid receptor; assay: Displacement of [3H]DAMGO from human recombinant MOR expressed in CHO cell membranes incubated for 2 hrs by liquid scintillation counting method
Mu-type opioid receptor [8] = molecular target: T1, Mu-type opioid receptor; assay: Potency index, ratio of endomorphin Ki to compound Ki for human recombinant MOR expressed in CHO cell membranes using [3H]DAMGO by radioligand binding assay

Row | Structure (SMILES) | Intrinsic activity (Mu-type opioid receptor [1]) | Retention_time [2] | EC50 (Mu-type opioid receptor [3]) [nM] | Ki [4] [nM] | Ki [5] [nM] | logP [6] | Ki (Mu-type opioid receptor [7]) [nM] | Ratio Ki (Mu-type opioid receptor [8])
1 | NC(=O)[C@H](Cc1ccccc1)NC(=O)[C@H](Cc1ccccc1)NC(=O)[C@@H]1CCCN1C(=O)[C@@H](N)Cc1cccc(O)c1 | 0.87 | 15.168 min | 44.7 | 12700 | 9150 | 1.37 | 18.9 | –
2 | Cc1cc(O)cc(C)c1C[C@H](N)C(=O)N1CCC[C@H]1C(=O)N[C@@H](Cc1ccccc1)C(=O)N[C@@H](Cc1ccccc1)C(N)=O | 0.91 | 16.484 min | 1.66 | 283 | – | 1.98 | 0.81 | 4
3 | Cc1cc(O)c(Cl)c(C)c1C[C@H](N)C(=O)N1CCC[C@H]1C(=O)N[C@@H](Cc1ccccc1)C(=O)N[C@@H](Cc1ccccc1)C(N)=O | 0.92 | 16.122 | 0.617 | 900 | 37.3 | 1.8 | 0.26 | –
4 | COc1cc(C[C@H](N)C(=O)N2CCC[C@H]2C(=O)N[C@@H](Cc2ccccc2)C(=O)N[C@@H](Cc2ccccc2)C(N)=O)cc(OC)c1O | 1.1 | 14.83 min | 7.94 | 10600 | 4480 | 0.67 | 4.38 | –
5 | Cc1cc(C[C@H](N)C(=O)N2CCC[C@H]2C(=O)N[C@@H](Cc2ccccc2)C(=O)N[C@@H](Cc2ccccc2)C(N)=O)cc(C)c1O | 1.04 | 16.508 min | 9.55 | 5260 | 4650 | 1.78 | 4.98 | –
6 | NC(=O)[C@H](Cc1ccccc1)NC(=O)[C@H](Cc1ccccc1)NC(=O)[C@@H]1CCCN1C(=O)[C@@H](N)Cc1ccc(O)cc1 [ENDOMORPHIN 2] | – | – | – | – | – | 1.13 | – | –
